Measured values from patent US20030236301A1, “Liposomal delivery of vitamin E based compounds” (priority 2001, published 2003).

Tests used:
[1] = tested on: 66 c1.4 GFP murine mammary tumor cells; assay: Tumor growth of 66 c1.4-GFP mammary tumor cells in Balb/c mice (tumor volume); settings: Example 18: liposomal formulation by aerosol, 75 mg in nebulizer/day
Protocol: 66 c1.4-GFP cells were harvested by trypsinization, centrifuged, resuspended in McCoy's media, containing no supplements at a density of 2×10^5/100 μl. Mice were injected in the inguinal area at a point equal distance between the 4th and 5th nipples on the right side using a 23 gauge needle.
50 mice were assigned (10 per group) to aerosol treatment, aerosol control, oral treatment, oral control, or to the no treatment group so that the average tumor volume for all groups were closely matched. […] Tumors were measured using calipers every other day, and volumes were calculated using the formula: volume (mm^3) [width (mm)^2×length (mm)]/2. Body weights were determined weekly.
Balb/c mice were injected with 200,000 66 c1.4 GFP cells subcutaneous in the mammary fat pad area between the 4th and 5th nipple on the right side of the body.
Mice are injected with 200,000 66 c1.4 GFP murine mammary tumor cells as described on day 0. Treatments are initiated on day 9 when tumors reached 1-3 mm in size. Aerosol treatments of α-TEA liposomes (5 mg α-TEA/mouse) are administered daily for 16 days (FIG. 8). Data represent the mean+/−Standard Error (SE), N=10 mice for control and treatment groups.
Balb/c mice were injected s.c. with 2×10^5 66 c1.4-GFP cells in the inguinal area between the 4th and 5th nipple on the right side of the body. When tumors reached 2×2-4×4 mm (9 days after tumor injection), mice were placed into 5 groups ((Group 1: untreated control, Group 2: liposome/aerosol control, Group 3: liposomal α-TEA aerosol treatment, Group 4: peanut oil/gavage control, Group 5: α-TEA in peanut oil/gavage treatment) of 10 mice/group) such that the mean tumor volume of each group was closely matched. Daily treatments were initiated on day 9 after tumor injection.
Balb/c mice were injected with 200,000 66 c1.4 GFP cells subcutaneous in the mammary fat pad area between the 4th and 5th nipple on the right side of the body. […] Animals were treated with α-TEA in liposome, vitamin E succinate in liposome, or control liposome alone via aerosol, 7 days per week, for 21 days. Animals were given 75 mg compound via nebulization per day such that each animal received 36 μg compound per day.
The size of the tumors, 9-21 days after injection of 200,000 66 c1.4 GFP cells between the 4th and 5th nipple on the right side of each mouse, is determined. Treatments are initiated on day 9 after tumor inoculation. Each group consists of n=10+/−SE. Gavage Treatment=Treatments of 5 mg of α-TEA in ethanol and peanut oil (0.1 ml volume) are administered daily starting on day 9 after tumor inoculation and continuing through day 21. Gavage Control=Mice received peanut oil and ethanol alone (0.1 ml volume)/daily, starting on day 9 after tumor inoculation and continuing through day 21. Data (tumor size) are depicted as the mean+/−standard error for days 9, 11, 13, 15, 17, 19, and 21.
Balb/c mice were injected with 200,000 66 c1.4 GFP cells subcutaneous in the mammary fat pad area between the 4th and 5th nipple on the right side of the body. […] Animals were treated with α-TEA in liposome vitamin E succinate in liposome, or control liposome alone via oral gavage, 2 times per day, 7 days per week, for 21 days. Animals were given a total of 6 mg compound per day.

[2] = tested on: 66 c1.4-GFP tumors; assay: KI-67 immunohistochemistry of cell proliferation in tumors; type: in vivo, Balb/c mice; settings: liposomal formulation by aerosol, vs control
[3] = tested on: 66 c1.4 GFP murine mammary tumor cells; assay: TUNEL assay for apoptosis in vivo in 66 c1.4-GFP tumor sections; design: species or system Balb/c mice; settings: liposomal formulation by aerosol, vs control
Description: Deparaffinized sections (5 μm) of tumor tissue were used to assess apoptosis using reagents supplied in the ApopTag In Situ Apoptosis Detection kit (Intergen, Purchase, N.Y.) according to the manufacturer's instructions. Nuclei that stained brown were scored as positive for apoptosis and those that stained blue were scored as negative. At least sixteen 400× microscopic fields were scored per tumor. Data are presented as the mean±S.E. number of apoptotic cells counted in three separate tumors from each group. Pictures of tumor tissue were taken at 1000× magnification.

[4] = tested on: 66 c1.4-GFP tumors; assay: CD31 immunohistochemistry of tumor blood vessel numbers; type: in vivo, Balb/c mice; settings: liposomal formulation by aerosol, vs control

## Cc1c(C)c2c(c(C)c1O)CCC(C)(CCCC(C)CCCC(C)CCCC(C)C)O2 (racemic) [dl-α-tocopherol]
[1]; day 15 of treatment
  inhibition of tumor growth: 81%
[1]; day 17 of treatment
  inhibition of tumor growth: 73%
[2]
  % Reduction of KI67 cell proliferation: 33%
[3]
  % Enhanement of TUNEL positive apoptotic cells: 44%
[4]
  % Reduction of CD31 tumor blood vessel numbers: 51%
